The text below walks through data of ChEMBL document CHEMBL4138086, “Design and synthesis of bis(indolyl)ketohydrazide-hydrazones: Identification of potent and selective novel tubulin inhibitors” (Eur J Med Chem, 2017).

pIC50: −log10 of the molar value. Active and inactive are the calls of the source. The calls are words filed in the database; no cut-off is given here.

Data set [1] relates to HCT-116. Put plainly: Toxicity in human HCT116 cells at 20 uM after 40 hrs by LDH assay. Type of data set: cell-based. The conditions noted are these: hct-116, 40 h.
The subject of data set [2] is Jurkat. Nature of the data set: Cytotoxicity against human Jurkat cells assessed as reduction in cell survival after 48 hrs by MTT assay. Type of data set: functional, cell-based.
The species entered for data set [3] is Sus scrofa. Nature of the data set: (§1) Inhibition of porcine brain tubulin polymerization incubated for 5 mins by fluorimetry.
In data set [4] the test system is HCT-116. Put plainly: Cytotoxicity against human HCT116 cells assessed as cell survival at 10 uM after 48 hrs by MTT assay relative to control. As to conditions: HCT-116, 48 h, read-out: Survival. Type of data set: functional.
The test system of data set [5] is MCF7. Nature of the data set: Cytotoxicity against human MCF7 cells assessed as cell survival at 10 uM after 48 hrs by MTT assay relative to control. It is filed as functional. The conditions noted are these: MCF7, 48 h, read-out: Survival. On the technique in general: Formazan colour is commonly taken as a measure of viable cells.
In data set [6] the test system is MCF7. Nature of the data set: Cytotoxicity against human MCF7 cells assessed as reduction in cell survival after 48 hrs by MTT assay. It is filed as functional, cell-based. The conditions noted are these: MCF7, 48 h.
Data set [7] deals with HCT-116. Nature of the data set: Cytotoxicity against human HCT116 cells assessed as reduction in cell survival after 48 hrs by MTT assay. It is filed as functional, cell-based. As to conditions: HCT-116, 48 h.
Data set [8] concerns BT-474. Nature of the data set: Cytotoxicity against human BT474 cells assessed as cell survival at 10 uM after 48 hrs by MTT assay relative to control. Type of data set: functional. The conditions noted are these: BT-474, 48 h, read-out: Survival.
Data set [9] is filed under the species Sus scrofa. Put plainly: Inhibition of porcine brain tubulin polymerization at 3.2 uM incubated for 5 mins by fluorimetry.
Data set [10] concerns BT-474. Nature of the data set: Cytotoxicity against human BT474 cells assessed as reduction in cell survival after 48 hrs by MTT assay. Type of data set: functional, cell-based. As to conditions: BT-474, 48 h.
Data set [11] deals with MDA-MB-231. Nature of the data set: Cytotoxicity against human MDA-MB-231 cells assessed as reduction in cell survival after 48 hrs by MTT assay. The conditions noted are these: MDA-MB-231, 48 h. Type of data set: functional, cell-based.
Data set [12] deals with MCF7. Put plainly: Toxicity in human MCF7 cells at 20 uM after 40 hrs by LDH assay. It is filed as cell-based. As to conditions: mcf7, 40 h.
The test system of data set [13] is MDA-MB-231. Put plainly: Toxicity in human MDA-MB-231 cells at 20 uM after 40 hrs by LDH assay. It is filed as cell-based. As to conditions: mda-mb-231, 40 h.
Data set [14] deals with Jurkat. Put plainly: Induction of apoptosis in human Jurkat cells increase in caspase 3/7 activity at 1 uM measured up to 180 mins by fluorescence assay relative to control. It is filed as functional.
Data set [15] has as its system BT-474. Put plainly: Toxicity in human BT474 cells at 20 uM after 40 hrs by LDH assay. As to conditions: bt-474, 40 h. Type of data set: cell-based.
Data set [16] concerns Jurkat. Nature of the data set: Toxicity in human Jurkat cells at 20 uM after 40 hrs by LDH assay. It is filed as cell-based.
For data set [17], the system named is MDA-MB-231. Put plainly: Cytotoxicity against human MDA-MB-231 cells assessed as cell survival at 10 uM after 48 hrs by MTT assay relative to control. It is filed as functional. The conditions noted are these: MDA-MB-231, 48 h, read-out: Survival.
Data set [18] concerns Jurkat. Put plainly: Cytotoxicity against human Jurkat cells assessed as cell survival at 10 uM after 48 hrs by MTT assay relative to control. Type of data set: functional. As to conditions: read-out: Survival.
Data set [19] in a line: as §1. The arrangement: species or system Sus scrofa.
For data set [20], the species on record is Sus scrofa. Put plainly: Inhibition of porcine brain tubulin polymerization at 0.6 uM incubated for 5 mins by fluorimetry.
Data set [21] relates to MCF7. Put plainly: Cell cycle arrest in human MCF7 cells assessed as G2/M phase accumulation at 3 uM after […] by propidium iodide staining based flow cytometry. Type of data set: functional. For orientation: In flow cytometry, cells or beads pass a laser one at a time.
For a further data set, the species on record is Capra hircus. Put plainly: Inhibition of colchicine binding to goat brain tubulin pre-incubated for 20 mins before colchine addition and measured after 45 mins by fluorescence based assay.
In a further data set the test system is P388. Nature of the data set: Cytotoxicity against mouse P388 cells assessed as reduction in cell viability. Type of data set: functional, cell-based.
Data set [22] relates to MDA-MB-231. Put plainly: Cytotoxicity against human MDA-MB-231 cells assessed as reduction in cell viability. It is filed as functional, cell-based.
The test system of a further data set is HCT-8. Nature of the data set: Cytotoxicity against human HCT8 cells assessed as reduction in cell viability. It is filed as functional, cell-based.
Another data set concerns A549. Put plainly: Cytotoxicity against human A549 cells assessed as reduction in cell viability. Type of data set: functional, cell-based.
Data set [23] deals with Cyclin-dependent kinase 4 (Homo sapiens, UniProt P11802). Nature of the data set: Inhibition of CDK4 (unknown origin).
Sequence of Cyclin-dependent kinase 4 (P11802 whole entry): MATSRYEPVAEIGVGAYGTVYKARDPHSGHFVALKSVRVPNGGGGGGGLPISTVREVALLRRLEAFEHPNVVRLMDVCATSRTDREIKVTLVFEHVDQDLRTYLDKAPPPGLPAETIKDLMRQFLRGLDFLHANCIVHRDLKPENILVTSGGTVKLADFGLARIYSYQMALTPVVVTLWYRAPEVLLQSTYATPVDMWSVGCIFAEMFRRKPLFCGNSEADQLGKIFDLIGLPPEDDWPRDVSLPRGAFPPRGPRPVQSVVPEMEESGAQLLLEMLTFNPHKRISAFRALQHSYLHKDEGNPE
The target of data set [24] is Receptor tyrosine-protein kinase erbB-2 (Homo sapiens, UniProt P04626). Put plainly: Inhibition of c-erbbeta2 (unknown origin).
Sequence of Receptor tyrosine-protein kinase erbB-2 (P04626 whole entry): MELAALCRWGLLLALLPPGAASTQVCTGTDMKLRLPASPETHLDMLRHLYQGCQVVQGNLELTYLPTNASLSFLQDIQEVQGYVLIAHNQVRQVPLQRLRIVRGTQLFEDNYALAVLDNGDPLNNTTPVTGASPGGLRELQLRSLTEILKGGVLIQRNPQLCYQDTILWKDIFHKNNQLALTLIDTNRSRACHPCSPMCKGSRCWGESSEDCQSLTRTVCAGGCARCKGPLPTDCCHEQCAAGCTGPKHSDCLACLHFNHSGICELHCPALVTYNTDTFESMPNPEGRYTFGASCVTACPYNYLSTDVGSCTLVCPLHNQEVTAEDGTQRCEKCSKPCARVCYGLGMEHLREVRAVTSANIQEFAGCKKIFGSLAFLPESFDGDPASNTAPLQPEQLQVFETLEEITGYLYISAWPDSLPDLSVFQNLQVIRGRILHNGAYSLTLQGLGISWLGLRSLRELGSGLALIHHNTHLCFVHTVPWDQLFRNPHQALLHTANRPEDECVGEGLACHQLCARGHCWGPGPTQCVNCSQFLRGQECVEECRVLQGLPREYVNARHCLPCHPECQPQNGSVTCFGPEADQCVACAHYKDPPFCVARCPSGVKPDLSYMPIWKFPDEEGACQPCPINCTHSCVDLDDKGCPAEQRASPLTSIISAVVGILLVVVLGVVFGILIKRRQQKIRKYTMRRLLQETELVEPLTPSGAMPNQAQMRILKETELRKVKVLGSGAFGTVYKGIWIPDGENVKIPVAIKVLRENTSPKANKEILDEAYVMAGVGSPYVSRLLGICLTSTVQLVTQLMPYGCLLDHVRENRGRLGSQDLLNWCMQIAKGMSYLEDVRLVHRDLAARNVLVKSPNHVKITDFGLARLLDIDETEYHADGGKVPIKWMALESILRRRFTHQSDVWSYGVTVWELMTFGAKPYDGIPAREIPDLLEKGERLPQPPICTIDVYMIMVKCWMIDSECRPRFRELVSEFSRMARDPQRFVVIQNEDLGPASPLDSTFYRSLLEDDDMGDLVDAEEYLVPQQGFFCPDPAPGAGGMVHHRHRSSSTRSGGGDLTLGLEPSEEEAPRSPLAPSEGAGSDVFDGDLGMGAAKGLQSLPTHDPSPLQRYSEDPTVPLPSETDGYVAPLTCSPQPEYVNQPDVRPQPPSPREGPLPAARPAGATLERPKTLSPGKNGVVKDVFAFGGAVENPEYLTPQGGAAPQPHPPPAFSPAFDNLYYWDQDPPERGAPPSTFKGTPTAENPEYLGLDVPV

For the molecule `COc1ccc2[nH]cc(/C=N/NC(=O)C(=O)c3cn(Cc4ccc(Cl)cc4)c4ccccc34)c2c1`, the Activity in the data set with HCT-116 [1], in the data set with MCF7 [12], in the data set on MDA-MB-231 [13], in the data set with BT-474 [15] and in the data set with Jurkat [16] was 20 to 25% each time. Besides, the pIC50 (as a rule, the negative decadic logarithm of the IC50, by convention in mol/L) in the data set with Jurkat [2] was 5.44; with MCF7 [6], 5.42; in the data set with HCT-116 [7], 5.38; in the data set on BT-474 [10], 5.57; in the data set with MDA-MB-231 [11], 5.54. Also, the inhibition – broadly, the relative decrease from the control value, in per cent – in the data set filed under Sus scrofa [3] was “Dose-dependent effect”; in the data set filed under Sus scrofa [9] it was 50%. The viability at 10 µM in the data set with HCT-116 [4] stood at 38.2%; in the data set on MCF7 [5] it was 33.7%; in the data set on BT-474 [8], 21.2%; in the data set on MDA-MB-231 [17] it was 29.4%; in the data set on Jurkat [18], 36.1%. Further, the “fold change (FC)” value in the data set with Jurkat [14] is reported as 2 - 5.

As for `O=C(N/N=C/c1c[nH]c2ccccc12)C(=O)c1cn(Cc2ccc(Cl)cc2)c2ccccc12`, the Activity in the data set with HCT-116 [1], with MCF7 [12], with MDA-MB-231 [13], in the data set on BT-474 [15] and in the data set on Jurkat [16] was 20 to 25% throughout. The pIC50 in the data set on Jurkat [2] was 6.66; in data set [19] it was 6.22; in the data set on MCF7 [6], 6.10; in the data set with HCT-116 [7], 6.82; with BT-474 [10], 5.68; in the data set on MDA-MB-231 [11], 6.30. Moreover, the inhibition result in the data set filed under Sus scrofa [3] is “Dose-dependent effect”; in the data set filed under Sus scrofa [20], 50%; in the data set listed under Capra hircus it was “Dose-dependent effect”. Besides, the viability at 10 µM in the data set on HCT-116 [4] was found to be 13.3%; in the data set on MCF7 [5], 15%; in the data set on BT-474 [8] it was 22.5%; in the data set on MDA-MB-231 [17] it was 17.1%; in the data set on Jurkat [18], 20.6%. Further, in the data set on MCF7 [21], the outcome was Active. The “fold change (FC)” value in the data set with Jurkat [14] is on record as 2 - 5.

With `CN1CC(c2c[nH]c3cc(Br)ccc23)N(C)CC1c1c[nH]c2cc(Br)ccc12` (stereo not given), the pIC50 in the data set with P388 is 4.82; in the data set with MDA-MB-231 [22] it was 5.00 to 6.00; in the data set with HCT-8, 5.00 to 6.00; in the data set on A549, 5.00 to 6.00.

For `O=C1N=C(C(=O)c2c[nH]c3ccccc23)N/C1=C\c1c[nH]c2cc(O)ccc12`, the pIC50 was 4.90 in data set [23] and 5.13 in data set [24].
